In patent US20260193294A1, “POLYPEPTIDE INHIBITOR, AND PREPARATION METHOD THEREFOR AND USE THEREOF” (SHANGHAI HANSOH BIOMEDICAL CO., LTD., priority 2022, published 2026):
Where two headings read alike, the source gives them in different places.

Experiments:
[1] = Pharmacokinetic determination in beagle dogs (IV); details: male, dog, plasma, 0.2 mg/kg
Protocol: (§2) Beagle dogs were used as test animals to study the pharmacokinetic behavior of the compounds of the examples in the rats (plasma) after IV administration.
(§3) 3 beagle dogs/group, male, from Yizheng Anlimao Biotechnology Co., Ltd.
(§4) The compounds of the examples were weighed and dissolved in this solution, vortexed, ultrasonicated for 5 min, and filtered through a 0.22 μm filter membrane to obtain colorless clear solutions with a concentration of 0.1 mg/mL.
(§5) 3 beagle dogs/group, male were fasted overnight and then respectively administered IV at a dose of 0.2 mg/kg and a volume of 2 mL/kg.
(§6) 1) Acetonitrile (200 μL) was added to the plasma sample (50 L) for precipitation, and the mixture was mixed and centrifuged at 4500 rpm for 15 min.
(§7) 2) The treated supernatant solution was taken and subjected to LC/MS/MS to analyze the concentrations of the test compounds. LC/MS/MS analysis instrument: AB Sciex Triple Quad 6500+.
(§8) Premier Peptide CSH C18 130A 1.7 μm 2.1*100 mm Column, mobile phase: liquid A: 5% acetonitrile aqueous solution (0.1% formic acid), and liquid B: an aqueous solution of 95% acetonitrile (0.1% formic acid) • Flow rate: 0.6 mL/min • Elution time: 0-2.0 min, the eluent was as follows:
(§9) The main pharmacokinetic parameters were calculated using WinNonlin 8.1.

in vivo [2] = details: male, beagle, dog, iv, 0.2 mg/kg
Protocol: as §2, §3, §4, §5, §6, §7, §8, §9

[3] = Pharmacokinetic determination in rats (IV); details: male, Sprague-Dawley (SD), rat, plasma, 1 mg/kg
Protocol: (§10) SD rats were used as test animals to study the pharmacokinetic behavior of the compounds of the examples in the rats (plasma) after oral or IV administration.
Preparation of intravenous drug: PBS
(§11) The compounds of the examples were weighed and dissolved in this solution, vortexed, ultrasonicated for 5 min, and filtered through a 0.22 μm filter membrane to obtain colorless clear solutions with a concentration of 0.2 mg/mL.
(§12) 3 SD rats/group, male were fasted overnight and then respectively administered IV at a dose of 1 mg/kg and a volume of 5 mL/kg.
(§13) • Before administration and at 0.083 h, 0.25 h, 0.5 h, 1.0 h, 2.0 h, 4.0 h, 6.0 h, 8.0 h, and 24.0 h after administration (IV), 0.2 mL of blood was collected from the jugular vein, placed in an EDTA-2K test tube, and centrifuged at 6000 rpm for 6 min at 4° C. to separate plasma, which was stored at −20° C.; and the rats were fed 4 h after administration.
(§14) 1) Acetonitrile (200 μL) was added to the plasma sample (50 μL) for precipitation, and the mixture was mixed and centrifuged at 4500 rpm for 15 min.
as §7
(§15) • Liquid phase conditions: Shimadzu LC-30AD pump • Chromatographic column: HALO 90A PFP 2.7 μm 2.1×30 mm, mobile phase: liquid A: 5% acetonitrile aqueous solution (0.1% formic acid), and liquid B: an aqueous solution of 95% acetonitrile (0.1% formic acid) • Flow rate: 0.6 mL/min • Elution time: 0-2.0 min, the eluent was as follows:
as §9

IL23R = target: T1, IL23R (Homo sapiens, UniProt Q5VWK5); experiment: Competing with IL23 for binding to IL23R (HTRF, IL23/IL23R binding assay kit); details: 2 hours incubation at room temperature
T1 construct: Tag2 (identity not disclosed); purchased PerkinElmer 64BDPIL23PEH
T1 sequence (Q5VWK5 24-355 limits assumed): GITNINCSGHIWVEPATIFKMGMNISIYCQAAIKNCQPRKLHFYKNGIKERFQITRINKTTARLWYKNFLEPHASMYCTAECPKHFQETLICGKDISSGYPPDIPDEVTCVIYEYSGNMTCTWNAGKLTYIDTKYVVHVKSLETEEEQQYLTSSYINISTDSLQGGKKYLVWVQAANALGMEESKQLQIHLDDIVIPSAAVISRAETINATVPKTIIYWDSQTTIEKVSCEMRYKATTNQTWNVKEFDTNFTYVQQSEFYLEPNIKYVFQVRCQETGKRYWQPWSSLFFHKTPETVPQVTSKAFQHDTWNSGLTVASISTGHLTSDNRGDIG
Protocol: (§1) The compounds of the present disclosure were screened in IL23/IL23R BINDING ASSAY KITS (PerkinElmer Cat #64BDPIL23PEH). The screening of the compounds of the present disclosure was carried out by using a multi-well plate (suitable for HTRF determination). Generally, 2 μl of several compounds of the present disclosure and STANDARD SOLUTIONS in KIT were first respectively added to the wells of the multi-well plate. 4 μl of Tag1-IL23, 4 μl of Tag2-IL23R, and 10 μL of pre-mixed Anti-Tag1 Eu Cryptate Antibody and Anti-Tag2 d2 reagent were necessarily added to all the wells. The multi-well plate was protected from light by an opaque cover membrane, and the opaque cover membrane was then removed
as §1, with “removed after 2 hours of incubation at room temperature. The signal value was read by an HTRF-compatible detection instrument to detect IC50 value.” for “removed”
The inhibition rate was calculated as follows: […]
By using log (inhibitor) vs. response—Variable slope (four parameters) in Graphpad, the data of HTRF experiment results were subjected to non-linear regression fitting to fit a curve and obtain the IC50 value.

in vitro = in vitro ADME; details: 37° C.; for half-life at 0.5 μM: in vitro half-life, read-out: t1/2 (converted); for remaining at 4 h, 0.5 µM: read-out: Residual ratio % at 4 h
Protocol: To study the stability of the compounds of the examples in the plasmas of mice, rats, dogs and humans.
Preparation of plasma: Animal or human whole blood was collected, then put into a test tube containing an anticoagulant, and centrifuged at 3500 rpm for 10 min, and the upper pale yellow plasma was collected; • working solution of 10 μM test compound: a stock solution was prepared with DMSO, and the working solution was prepared with 100 mM phosphate buffer; • working solution of 10 μM positive control: • procaine: 2.36 mg of procaine was weighed and diluted into a 10 mM stock solution with 1 mL of DMSO. 10 μL of the 10 mM stock solution was pipetted into 1 mL of 100 mM phosphate buffer, such that the final concentration was 100 μM; and • enalapril: 4.93 mg of enalapril was weighed and diluted into a 10 mM stock solution with 1 mL of DMSO; and 10 μL of the 10 mM stock solution was pipetted into 1 mL of 100 mM phosphate buffer, such that the final concentration was 100 μM.
In a 96-well plate, 285 μL of plasma and 15 μL of 10 μM compound (test compound, and positive control) were successively added and incubated at 37° C.
40 μL was taken at 0, 15, 30, 60, 90, and 120 min (sampling points could be fine-tuned), respectively, and 160 μL of an acetonitrile stop solution containing an internal standard was added.
After centrifugation (3500 rpm, 10 min), 50 μL of the supernatant was taken, diluted by adding 50 μL of DDH2O, and then injected for LC-MS/MS.
• Instrument: Shimadzu LC-20 AD • Chromatographic column: Phenomenex Gemiu® C18 (50*4.6 mm, 5 μm particle size) • Mobile phase: A: acetonitrile, B: 0.1% formic acid solution • Elution gradient: […]: 5% A→95% A, 2.0-2.1 min: […] • Flow rate: 0.8 mL/min • Run time: 5.0 min • Injection volume: 5 μL
• Instrument: API4000 liquid chromatography mass spectrometer, AB, US • Ion source: electrospray ionization source (ESI) • Drying gas: N2, temperature 500° C. • Electrospray voltage: 5500V • Detection mode: positive ion detection • Scan mode: multi reaction monitoring (MRM) mode • Scan time: 0.1 s
All calculations were carried out using Microsoft Excel. The peak area ratio was determined by an extracted ion chromatogram.
The residual percentage of the compound at each time point was calculated by the following equation: Residual percentage at t hours (%)=peak area ratio at t hours/peak area ratio at 0 hour×100%, in which the peak area ratio at t hr was the peak area ratio of the […] at t min; and • the slope value k was determined by linear regression on the natural logarithm of the curve of the residual percentage of the parent drug versus the incubation time.
In vitro half-life (in vitro t1/2) was determined by the slope value: […]

in vivo [4] = details: male, Sprague-Dawley (SD), rat, iv, 1 mg/kg
Protocol: as §10
Preparation of intravenous drug: PBS
as §11, §12, §13, §14, §7, §15, §9

Question: What does the source list for `CC(=O)NCCCC[C@@H]1NC(=O)[C@H](Cc2c[nH]c3c(C)cccc23)NC(=O)[C@H]([C@@H](C)O)NC(=O)[C@H](CC(N)=O)NC(=O)[C@@H](NC(C)=O)C(C)(C)SSC(C)(C)[C@@H](C(=O)N[C@@H](Cc2ccc(OCCN)cc2)C(=O)N[C@@H](Cc2ccc3ccccc3c2)C(=O)NC2(C(=O)N[C@@H](CCC(=O)O)C(=O)N[C@@H](CC(N)=O)C(=O)N[C@@H](Cc3cccnc3)C(=O)N(C)CCNC(=O)CCOCCOCC[N+](C)(C)CCNC(=O)COCCOCCNC(=O)COCCOCCNC(=O)CC[C@H](NC(=O)CCCCCCCCCCCCCCC(=O)O)C(=O)O)CCC(F)(F)CC2)NC1=O` [Example 1-16-1]?
Answer: AUC(0-inf) [1]: 76400 ng·h/mL; AUC(0-t) [1]: 68800 ng·h/mL; C0 [1]: 2750 ng/mL; MRT [1]: 66.9 h; clearance [1]: 2.4 mL/h/kg; half-life (in vivo [2]): 2.24 days; AUC(0-inf) [3]: 47600 ng·h/mL; AUC(0-t) [3]: 46100 ng·h/mL; C0 [3]: 12600 ng/mL; MRT [3]: 6.2 h; clearance [3]: 0.35 mL/min/kg; IC50 (IL23R): 2.73 nM; half-life at 0.5 μM (in vitro; Dog plasma): 3.15 days; remaining at 4 h, 0.5 µM (in vitro; Dog plasma): 90.5%; half-life at 0.5 μM (in vitro; Rat plasma): 25.1 days; remaining at 4 h, 0.5 µM (in vitro; Rat plasma): 104%; half-life at 0.5 μM (in vitro; mouse, Mice plasma): 83.6 days; remaining at 4 h, 0.5 µM (in vitro; mouse, Mice plasma): 104%; half-life (in vivo [4]): 300 min
